For series [1] the following is noted: after oral administration of a 50 mg tablet; cited from earlier work.
For a further series, the target named is T1, human MMP-8 (Homo sapiens, UniProt P22894).
T1 construct: purchased R&D systems 908-MP
As to the kind of experiment: Proteolysis of SDF-1α by activated MMP-8, multiplex western blot. The format is biochemical. As to the method:
(§1) • Particle size was determined using a Malvern Mastersizer MS3000 laser diffraction particle size analyzer. A 1 mg/ml microparticles in deionized water preparation was introduced in the apparatus and the measurement run 3 times. The results shown in the examples are the mean of the three measures. • Eltrombopag microparticle drug load was determined by first solubilizing 10 mg of drug-loaded polymeric microparticles in 2,5 mL of an acetonitrile/water mixture at a 80/20 v/v ratio. The medium was then centrifuged for 15 min at 4000 rpm and the supernatant filtrated through a 0.45 µm PTFE filter (Acrodisc PTFE). A 2 ml aliquot of the filtrated supernatant was then analyzed by HPLC to determine the microparticle drug load. HPLC analysis was conducted using a silica-based reversed-phase C18 column [Kinetex C18, 100mm × 4,6 mm, 2,6 µm particle size] and a mobile phase consisting in [acetonitrile/ammonium formate (10 mM) 80/20 v/v adjusted at pH 2]. The flow rate was set at 0,5 mL/min, the injection volume was 10µL and the UV detection was set at 244 nm. • For incubation of Eltrombopag olamine with activated human proteases, proMMP-8 and pro MMP-9 proteases were first activated. Human proMMP-8 (Cat. no. 908-MP, R&D systems) at 100 µg/ml in buffer containing 50 mM Tris, 150 mM NaCl (sodium chloride), 5 mM CaCl2 (calcium chloride) and 0.01% tween 20 (pH 7.6) was activated by incubation with 1 mM p-aminophenylmercuric acetate for 1h at 37°C. Human proMMP-9 was expressed in Sf9 cells, purified by gelatin-sepharose chromatography and activated by incubation with the catalytic domain of MMP-3 (cat. No. 444217, Merck Millipore). Specifically, human proMMP-9 at 920 µg/ml in the same described buffer as for MMP-8 activation was incubated with the catalytic domain of MMP-3 at a molar ratio of 1/100 (MMP-3/MMP-9) for 2h at 37°C in. The final concentration of MMP-9 was 10 µM and the final concentration of MMP-3 was 0.1 µM. Concentrated eltrombopag olamine solution was prepared by solubilization in water at a concentration of 10 mg/ml for 24h on rotor at 4°C, and further diluted at the final concentration needed. Activated MMP-8 or MMP-9 were then incubated at a final concentration of 625 nM in Eltrombopag olamine at different concentrations (50 µM, 10 µM, 1 µM and 0.1 µM) in a final volume of 3µl for 30 minutes at 37°C in calcium-free buffer containing 50 mM Tris, 150 mM NaCl, 0.01% tween 20 (pH 7.6) using low protein-binding tubes (Protein LoBind tubes, Eppendorf). • Incubation of human SDF-1α (Cat. no. 300-28A, Peprotech) in the solution containing the activated human proteases and eltrombopag olamine was done at a MMP/SDF-1 molar ratio of 1/5 in the same calcium-free buffer and tubes described, with a final SDF-1 α concentration of 3.125 µM and a final volume of 4µl at 37°C for 2h. A negative control without eltrombopag olamine was similarly prepared. • SDF-1 proteolysis was analyzed by multiplex western blot. All samples were diluted in reducing loading buffer (10% β-mercaptoethanol, 0.1% bromophenol blue, 4% SDS (sodium dodecyl sulfate), 20% glycerol, 125 mM Tris, pH 6.8) and boiled at 90°C for 20 min. Next, the equivalent of 100 ng SDF-1 was loaded onto Novex 16% tricine gels (Cat. no. EC6695BOX, Invitrogen). The Chameleon Duo Pre-stained Protein Ladder was used as a molecular weight using 6ul in one well. Proteins in the samples were separated by denaturing SDS-PAGE using tricine running buffer (100 mM Tris, 100 mM Tricine, 0.1% SDS, pH 8.3) under a constant voltage of 120V (±60 min). After electrophoresis, proteins were transferred to polyvinylidene difluoride (PVDF) membranes with the Trans-Blot Turbo Transfer System (Biorad) with Trans-Blot Turbo RTA Mini 0.45 µm low fluorescence PVDF Transfer Kit (Cat. No. 1704274, Biorad). […]

A further series concerns the target T2, human MMP-9 (Homo sapiens, UniProt P14780).
T2 construct: made in house; host or cells: Sf9 cells
As to the kind of experiment: Proteolysis of SDF-1α by activated MMP-9, multiplex western blot. The class given is biochemical. As to the method: as §1

Where [2] appears, read: SDF-1 plus MMP-8 plus 0.1 µM eltrombopag olamine.
Setting [3] is: SDF-1 plus MMP-8 plus 1 µM eltrombopag olamine.
Where [4] appears, read: SDF-1 plus MMP-8 plus 10 µM eltrombopag olamine.
The mark [5] stands for this setting: SDF-1 plus MMP-8 plus 50 µM eltrombopag olamine.
The mark [6] stands for this setting: SDF-1 plus MMP-9 plus 0.1 µM eltrombopag olamine.
[7] abbreviates: SDF-1 plus MMP-9 plus 1 µM eltrombopag olamine.
Where [8] appears, read: SDF-1 plus MMP-9 plus 10 µM eltrombopag olamine.
[9] abbreviates: SDF-1 plus MMP-9 plus 50 µM eltrombopag olamine.

Here are results for two compounds from EP4389113A1, “DOSAGE FORM FOR INTRAMEDULLARY INJECTION OR IMPLANTATION COMPRISING ELTROMBOPAG FOR USE IN THE IMPROVEMENT OF HEMATOPOIETIC STEM CELL TRANSPLANTATION” (PK MED, priority 2022, dated 2024).

T2 sequence (P14780 107-707 limits assumed): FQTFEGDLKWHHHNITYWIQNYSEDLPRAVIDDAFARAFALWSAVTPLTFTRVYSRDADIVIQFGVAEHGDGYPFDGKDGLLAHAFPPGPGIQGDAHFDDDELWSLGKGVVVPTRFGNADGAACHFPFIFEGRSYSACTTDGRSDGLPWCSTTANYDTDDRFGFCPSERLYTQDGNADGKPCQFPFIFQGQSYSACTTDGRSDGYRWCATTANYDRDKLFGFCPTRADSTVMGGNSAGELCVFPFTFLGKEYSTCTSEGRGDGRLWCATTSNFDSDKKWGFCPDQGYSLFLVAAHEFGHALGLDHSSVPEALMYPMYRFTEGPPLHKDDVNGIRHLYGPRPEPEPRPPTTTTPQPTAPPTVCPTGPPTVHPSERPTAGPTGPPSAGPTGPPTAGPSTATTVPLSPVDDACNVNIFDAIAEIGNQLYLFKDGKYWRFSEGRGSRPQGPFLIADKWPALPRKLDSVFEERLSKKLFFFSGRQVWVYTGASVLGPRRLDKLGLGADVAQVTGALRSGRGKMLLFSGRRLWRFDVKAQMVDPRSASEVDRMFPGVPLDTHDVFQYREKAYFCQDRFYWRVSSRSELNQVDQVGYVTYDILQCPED
T1 sequence (P22894 101-467): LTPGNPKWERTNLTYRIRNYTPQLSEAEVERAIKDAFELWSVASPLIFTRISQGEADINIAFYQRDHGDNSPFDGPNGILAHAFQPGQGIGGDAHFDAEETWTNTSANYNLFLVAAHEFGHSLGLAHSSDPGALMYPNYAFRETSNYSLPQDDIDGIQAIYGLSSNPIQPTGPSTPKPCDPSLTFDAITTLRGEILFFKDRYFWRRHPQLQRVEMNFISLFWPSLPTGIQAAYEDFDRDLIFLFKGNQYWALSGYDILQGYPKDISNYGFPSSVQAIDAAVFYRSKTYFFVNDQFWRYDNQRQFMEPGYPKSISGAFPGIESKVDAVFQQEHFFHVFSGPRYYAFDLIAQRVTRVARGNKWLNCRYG

Turning to `CC1=NN(c2ccc(C)c(C)c2)C(=O)/C1=N\Nc1cccc(-c2cccc(C(=O)O)c2)c1O` [EPAG, 3'-[(2Z)-[1-(3,4-dimethylphenyl)-1,5-dihydro-3-methyl-5-oxo-4H-pyrazol-4-ylidene]hydrazino]-2'-hydroxy-[1,1'-biphenyl]-3-carboxylic acid], the maximum plasmatic concentration in series [1] is given as 14 µM.
In the case of `CC1=NN(c2ccc(C)c(C)c2)C(=O)/C1=N\Nc1cccc(-c2cccc(C(=O)O)c2)c1O.NCCO.NCCO` [eltrombopag olamine, 3'-{(2Z)-2-[1-(3,4-dimethylphenyl)-3-methyl-5-oxo-1,5-dihydro-4H-pyrazol-4-ylidene]hydrazino}-2'-hydroxy-3-biphenylcarboxylic acid - 2-aminoethanol (1:2)], the “intact SDF-1α retrieved” value worked out at 30% at human MMP-8 (MMP-8 in the presence of 50 µM eltrombopag olamine, only 3.5% in its absence) and 72% on human MMP-9 (MMP-9 in the presence of 50 µM eltrombopag olamine, only 20% in its absence). For the same compound, the “N-term intact SDF-1α (RFUs)” value at human MMP-8 (setting [2]) is on record as 0,0006 RFUs; at human MMP-8 (setting [3]) it was 0,0001 RFUs; at human MMP-8 (setting [4]), 0,0001 RFUs; at human MMP-8 (SDF-1 plus MMP-8 plus 50 µM eltrombopag olamine, MMP/SDF-1α molar ratio 1/5, 37°C, 2h), 0,0020 RFUs; on human MMP-9 (setting [6]) it was 0,013 RFUs; on human MMP-9 (setting [7]), 0,012 RFUs. Besides, the “N-term intact SDF-1α (RFUs)” value on human MMP-9 (setting [8]) is on record as 0,010 RFUs; on human MMP-9 (SDF-1 plus MMP-9 plus 50 µM eltrombopag olamine, MMP/SDF-1α molar ratio 1/5, 37°C, 2h) it was 0,033 RFUs. The “Ratio of intact/total SDF-1α” value on human MMP-8 (setting [2]) is listed as 0,0001; at human MMP-8 (setting [3]), 0,0000; at human MMP-8 (setting [4]), 0,0000; at human MMP-8 (setting [5]) it was 0,0002; at human MMP-9 (setting [6]), 0,003; at human MMP-9 (setting [7]), 0,003. Further, the figures for the “Ratio of intact/total SDF-1α” value at human MMP-9 (setting [8]) and on human MMP-9 (setting [9]) were 0,002 and 0,007, respectively. For the same compound, the “Total SDF-1α (RFUs)” value on human MMP-8 (setting [2]) is 7,501 RFUs; on human MMP-8 (setting [3]), 7,986 RFUs; on human MMP-8 (setting [4]), 6,989 RFUs; on human MMP-8 (setting [5]), 10,430 RFUs; on human MMP-9 (setting [6]), 3,951 RFUs; on human MMP-9 (setting [7]) it was 3,644 RFUs. Also, the “Total SDF-1α (RFUs)” value at human MMP-9 (setting [8]) is given as 4,142 RFUs; at human MMP-9 (setting [9]), 4,687 RFUs.
